We go through nine compounds from patent US20220064146A1, “KINASE INHIBITOR COMPOUNDS AND COMPOSITIONS AND METHODS OF USE” (ICAHN SCHOOL OF MEDICINE AT MOUNT SINAI, priority 2018, published 2022).

This assay addresses T1, DYRK1/DYRK1A (Homo sapiens, UniProt Q13627).
T1 construct: purchased Reaction Biology Corp. (assay service)
The experiment in a line: DYRK1/DYRK1A IC50 assay (Reaction Biology Corp.). The class given is biochemical. The conditions noted are these: DYRK1/DYRK1A assay from Reaction Biology Corp.; NI: No inhibition.
`O=c1[nH]c2ccc(-c3cnc(NCc4c[nH]cn4)nc3)cc2[nH]1` [Compound 51d, 5-(2-(((1H-Imidazol-4-yl)methyl)amino)pyrimidin-5-yl)-1H-benzo[d]imidazol-2(3H)-one]: the IC50 worked out at 326 nM.

The compound `O=c1[nH]c2ccc(-c3cnc(NCc4cc[nH]n4)nc3)cc2[nH]1` [Compound 51e, 5-(2-(((1H-Pyrazol-3-yl)methyl)amino)pyrimidin-5-yl)-1H-benzo[d]imidazol-2(3H)-one] showed an IC50 of 337 nM.

As to `O=c1[nH]c2ccc(-c3cnc(NCc4ncco4)nc3)cc2[nH]1` [Compound 51f, 5-(2-((Oxazol-2-ylmethyl)amino)pyrimidin-5-yl)-1H-benzo[d]imidazol-2(3H)-one], inhibition was half-maximal at 427 nM (IC50).

With `CCn1c(=O)[nH]c2ccc(-c3cnc(NCc4ccccc4)nc3)cc21` [Compound 57a, 6-(2-(Benzylamino)pyrimidin-5-yl)-1-ethyl-1H-benzo[d]imidazol-2(3H)-one], the IC50 came to 243 nM.

With `CC(C)n1c(=O)[nH]c2ccc(-c3cnc(NCc4ccccc4)nc3)cc21` [Compound 57b, 6-(2-(Benzylamino)pyrimidin-5-yl)-1-isopropyl-1H-benzo[d]imidazol-2(3H)-one], half-maximal inhibition (IC50) required 4280 nM.

`O=c1[nH]c2ccc(-c3cnc(NCc4ccccc4)nc3)cc2n1C1CC1` [Compound 57c, 6-(2-(Benzylamino)pyrimidin-5-yl)-1-cyclopropyl-1H-benzo[d]imidazol-2(3H)-one] displayed a half-inhibitory concentration (IC50) of 714 nM.

As for `C[C@@H](Nc1ncc(-c2ccc3[nH]c(=O)[nH]c3c2)cn1)c1ccccc1` [Compound 60a, (R)-5-(2-((1-Phenylethyl)amino)pyrimidin-5-yl)-1H-benzo[d]imidazol-2(3H)-one], the midpoint of inhibition, the IC50, lay at 499 nM.

In turn, `C[C@H](Nc1ncc(-c2ccc3[nH]c(=O)[nH]c3c2)cn1)c1ccccc1` [Compound 60b, (S)-5-(2-((1-Phenylethyl)amino)pyrimidin-5-yl)-1H-benzo[d]imidazol-2(3H)-one] registered an IC50 of 177 nM.

`COCCOc1cccc(CNc2ncc(-c3ccc4[nH]c(=O)[nH]c4c3)cn2)c1` [Compound 62, 5-(2-((3-(2-Methoxyethoxy)benzyl)amino)pyrimidin-5-yl)-1H-benzo[d]imidazol-2(3H)-one] had an IC50 of 48.4 nM.
